According to paper PMC7544095, “Human ABCB1 with an ABCB11-like degenerate nucleotide binding site maintains transport activity by avoiding nucleotide occlusion” (PLoS Genetics, 2020):
Read-outs that look alike come from different tables or passages of the source. One block for each molecule: values may come before it.

How the values were obtained:
[1] = system: ABCB1; set-up: method as in PMID 11121420; details: reported values; read-out: KM for ATP hydrolysis; cited from earlier work
[2] = target: T1, wild-type ABCB1 (Homo sapiens, UniProt P08183); experiment: MgATP dependent UIC2 binding in permeabilized NIH 3T3 cells (apparent nucleotide affinity); assay type: cell-based
T1 construct: expressed in transfected cells
T1 sequence (P08183 whole entry): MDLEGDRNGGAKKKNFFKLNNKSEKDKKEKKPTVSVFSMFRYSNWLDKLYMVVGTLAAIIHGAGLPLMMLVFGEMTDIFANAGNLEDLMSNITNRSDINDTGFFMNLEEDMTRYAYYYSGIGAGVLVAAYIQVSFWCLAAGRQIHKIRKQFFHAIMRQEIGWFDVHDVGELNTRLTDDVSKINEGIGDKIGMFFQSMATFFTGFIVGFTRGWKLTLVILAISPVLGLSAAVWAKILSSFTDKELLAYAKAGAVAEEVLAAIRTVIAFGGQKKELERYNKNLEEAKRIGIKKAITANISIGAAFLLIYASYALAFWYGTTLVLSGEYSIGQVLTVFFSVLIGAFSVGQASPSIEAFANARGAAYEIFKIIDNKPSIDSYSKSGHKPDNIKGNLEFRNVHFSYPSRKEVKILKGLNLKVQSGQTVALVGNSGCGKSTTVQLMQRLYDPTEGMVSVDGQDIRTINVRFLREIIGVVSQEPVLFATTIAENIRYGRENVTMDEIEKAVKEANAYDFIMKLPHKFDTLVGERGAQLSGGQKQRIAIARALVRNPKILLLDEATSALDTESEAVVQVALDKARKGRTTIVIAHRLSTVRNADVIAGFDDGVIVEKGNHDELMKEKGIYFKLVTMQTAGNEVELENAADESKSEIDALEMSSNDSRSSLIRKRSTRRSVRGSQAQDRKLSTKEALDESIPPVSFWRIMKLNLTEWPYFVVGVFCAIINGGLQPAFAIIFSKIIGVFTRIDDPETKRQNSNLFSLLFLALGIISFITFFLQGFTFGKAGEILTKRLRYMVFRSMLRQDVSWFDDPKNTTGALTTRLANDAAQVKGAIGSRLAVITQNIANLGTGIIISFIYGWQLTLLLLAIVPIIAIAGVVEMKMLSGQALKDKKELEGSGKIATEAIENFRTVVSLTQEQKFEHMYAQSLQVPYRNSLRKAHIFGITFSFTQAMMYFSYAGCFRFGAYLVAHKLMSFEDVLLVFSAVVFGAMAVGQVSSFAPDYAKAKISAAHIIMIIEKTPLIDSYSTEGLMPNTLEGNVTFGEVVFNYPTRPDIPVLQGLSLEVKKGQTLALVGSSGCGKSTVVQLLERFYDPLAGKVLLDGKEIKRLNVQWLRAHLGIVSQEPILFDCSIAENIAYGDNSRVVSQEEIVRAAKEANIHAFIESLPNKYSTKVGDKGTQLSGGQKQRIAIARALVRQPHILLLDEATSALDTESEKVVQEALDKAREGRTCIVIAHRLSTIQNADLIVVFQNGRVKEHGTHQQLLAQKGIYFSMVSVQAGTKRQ
Experimental: (§1) NIH 3T3 cells (1 × 10^7 cells/ml) were treated with 300 U/ml streptolysin O (SLO, Sigma-Aldrich, Budapest) in the presence of 10 mM DL-Dithiothreitol (DTT), protease inhibitor cocktail (Sigma-Aldrich, Budapest, Hungary) and 100 μg/ml phenylmethanesulfonyl fluoride (PMSF) in phosphate-buffered saline (PBS) containing 1% fetal bovine serum (FBS-PBS) at 37°C for 30 min, allowing permeabilization of approximately 60–80% of the cells (judged by propidium iodide (PI) staining). The reaction was stopped with 10 ml ice-cold FBS-PBS and the cells were centrifuged for 5 min at 525 × g at 4°C. Unbound toxin was removed by washing the cells 3 times with FBS-PBS and the cell pellet was re-suspended in FBS-PBS.
(§2) Apparent affinity of nucleotide binding (KA) was determined as it is described in Barsony et al.. Briefly, MgATP was added in a broad concentration range to permeabilized cells (1 × 10^6 cells/ml) in the presence or absence of 0.5 mM vanadate (Vi) for 30 min at 37°C. Then the samples (without washing) were further incubated with 10 μg/ml UIC2-A647 mAb for another 30 min at 37°C. Following antibody labeling, samples were washed 3 times with ice-cold FBS-PBS and re-suspended in ice-cold FBS-PBS containing 3 μg/ml PI. The UIC2-A647 fluorescence intensity of the PI positive cells was measured by flow cytometry and plotted as a function of the nucleotide concentration. To determine the apparent affinity of ABCB1 to the nucleotides (KA) data points were fitted with the four-parameter Hill function, where Fmin and Fmax values are the minimum and maximum fluorescence intensities.

[3] = target: T2, ABCB1 E556M (catalytic glutamate mutant) (Homo sapiens, UniProt P08183, E556M); experiment: as above; assay type: cell-based
T2 construct: expressed in transfected cells
T2 sequence (P08183 whole entry E556M): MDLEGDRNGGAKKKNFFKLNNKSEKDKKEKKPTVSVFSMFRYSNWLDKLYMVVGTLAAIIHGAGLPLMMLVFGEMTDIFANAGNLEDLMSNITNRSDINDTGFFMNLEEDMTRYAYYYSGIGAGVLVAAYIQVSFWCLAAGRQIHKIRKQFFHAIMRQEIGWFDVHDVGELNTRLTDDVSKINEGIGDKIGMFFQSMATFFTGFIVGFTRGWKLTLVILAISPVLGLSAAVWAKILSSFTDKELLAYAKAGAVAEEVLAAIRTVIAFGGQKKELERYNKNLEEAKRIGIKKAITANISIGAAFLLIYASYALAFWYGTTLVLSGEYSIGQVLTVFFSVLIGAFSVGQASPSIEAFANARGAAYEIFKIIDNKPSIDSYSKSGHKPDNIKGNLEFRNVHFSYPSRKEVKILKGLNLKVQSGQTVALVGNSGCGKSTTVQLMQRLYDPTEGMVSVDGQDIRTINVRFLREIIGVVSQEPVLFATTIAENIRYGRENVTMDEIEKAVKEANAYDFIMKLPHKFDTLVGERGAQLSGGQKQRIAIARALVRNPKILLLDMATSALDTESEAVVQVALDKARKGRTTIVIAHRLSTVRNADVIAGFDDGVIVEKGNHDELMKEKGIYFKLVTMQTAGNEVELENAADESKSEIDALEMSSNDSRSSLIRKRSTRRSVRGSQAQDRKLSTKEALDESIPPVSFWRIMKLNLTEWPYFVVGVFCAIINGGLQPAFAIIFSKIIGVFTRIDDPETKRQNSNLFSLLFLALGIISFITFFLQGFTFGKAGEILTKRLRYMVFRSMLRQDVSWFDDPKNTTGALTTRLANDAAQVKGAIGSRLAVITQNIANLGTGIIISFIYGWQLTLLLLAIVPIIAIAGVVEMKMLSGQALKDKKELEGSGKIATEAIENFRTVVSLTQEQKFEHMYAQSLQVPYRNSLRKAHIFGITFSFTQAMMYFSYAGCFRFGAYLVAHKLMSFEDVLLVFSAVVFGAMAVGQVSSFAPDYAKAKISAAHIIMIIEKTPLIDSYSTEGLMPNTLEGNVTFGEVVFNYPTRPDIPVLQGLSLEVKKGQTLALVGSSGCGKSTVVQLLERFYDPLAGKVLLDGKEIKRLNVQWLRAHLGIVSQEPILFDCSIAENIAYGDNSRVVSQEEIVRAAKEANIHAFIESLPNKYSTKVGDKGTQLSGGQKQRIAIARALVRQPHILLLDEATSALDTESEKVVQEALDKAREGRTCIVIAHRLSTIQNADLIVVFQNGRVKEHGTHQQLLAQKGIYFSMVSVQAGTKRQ
Experimental: as §1, §2

[4] = target: T3, ABCB1 quadruple mutant (S474E, E556M, G1178R, Q1180E) (Homo sapiens, UniProt P08183, E556M/G1178R/Q1180E/S474E); experiment: as above; assay type: cell-based
T3 construct: expressed in transfected cells
T3 sequence (P08183 whole entry S474E/E556M/G1178R/Q1180E): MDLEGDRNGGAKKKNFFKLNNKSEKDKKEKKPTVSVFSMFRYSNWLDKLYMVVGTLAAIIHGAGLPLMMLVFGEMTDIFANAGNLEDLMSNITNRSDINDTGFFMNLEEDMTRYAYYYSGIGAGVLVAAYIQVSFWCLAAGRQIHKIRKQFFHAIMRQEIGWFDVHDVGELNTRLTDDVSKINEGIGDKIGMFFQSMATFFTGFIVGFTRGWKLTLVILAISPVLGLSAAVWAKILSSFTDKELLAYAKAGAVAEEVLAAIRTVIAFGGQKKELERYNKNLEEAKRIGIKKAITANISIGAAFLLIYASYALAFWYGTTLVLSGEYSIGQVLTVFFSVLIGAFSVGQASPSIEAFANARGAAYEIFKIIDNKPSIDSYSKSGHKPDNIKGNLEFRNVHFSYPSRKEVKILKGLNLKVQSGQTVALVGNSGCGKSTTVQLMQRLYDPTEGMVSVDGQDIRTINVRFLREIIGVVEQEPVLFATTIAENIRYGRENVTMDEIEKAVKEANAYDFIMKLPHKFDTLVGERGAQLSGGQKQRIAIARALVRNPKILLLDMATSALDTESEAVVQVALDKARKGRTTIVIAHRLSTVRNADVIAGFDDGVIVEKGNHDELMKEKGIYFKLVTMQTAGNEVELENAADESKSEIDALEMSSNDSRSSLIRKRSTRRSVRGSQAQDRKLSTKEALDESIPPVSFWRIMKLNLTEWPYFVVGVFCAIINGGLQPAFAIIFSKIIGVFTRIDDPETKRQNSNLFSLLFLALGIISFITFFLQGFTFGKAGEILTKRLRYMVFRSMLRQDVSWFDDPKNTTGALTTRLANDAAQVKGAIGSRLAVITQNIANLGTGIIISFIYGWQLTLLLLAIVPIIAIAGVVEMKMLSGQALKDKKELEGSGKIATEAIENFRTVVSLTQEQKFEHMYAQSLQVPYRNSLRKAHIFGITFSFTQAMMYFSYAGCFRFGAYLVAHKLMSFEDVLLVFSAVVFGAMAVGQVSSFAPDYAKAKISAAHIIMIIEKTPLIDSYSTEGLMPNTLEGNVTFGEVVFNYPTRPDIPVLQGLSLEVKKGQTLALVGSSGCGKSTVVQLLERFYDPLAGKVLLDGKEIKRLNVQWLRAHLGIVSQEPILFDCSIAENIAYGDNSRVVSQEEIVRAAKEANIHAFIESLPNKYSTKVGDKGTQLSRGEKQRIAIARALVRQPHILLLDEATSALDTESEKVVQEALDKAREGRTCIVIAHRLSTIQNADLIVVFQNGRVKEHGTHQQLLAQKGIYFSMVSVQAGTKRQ
Experimental: as §1, §2

[5] = target: T2, ABCB1 E556M (catalytic glutamate mutant); experiment: Hoechst 33342 and calcein-AM accumulation assay in NIH 3T3 cells (transport activity factor); assay type: cell-based
Experimental: (§3) For measurement of the transport activity of the mutant ABCB1 variants a cell based Hoechst 33342 and calcein-AM accumulation assay was used. Cells (5 × 10^5 ml^-1) in gl-HEPES (20 mM HEPES, 123 mM NaCl, 5 mM KCl, 1.5 mM MgCl2, 1 mM CaCl2, 7 mM glucose) for Hoechst 33342 assay or in gl-PBS for calcein-AM assay were pre-incubated in the presence or absence of specific ABCB1 inhibitor (tariquidar (1 μM)) for 10 min at 37°C and then were loaded with different concentrations of Hoechst 33342 (5.0, 1.0, 0.5, 0.1 and 0.025 μM) and calcein-AM (0.5, 0.25, 0.1, 0.05 and 0.025 μM) for 30 min. The samples were washed with ice-cold HEPES or PBS buffer containing 0.5% FBS at 300 × g for 5 min and were kept on ice until flow cytometric measurement. Dead cells were excluded from the analysis on the basis of PI staining. The transport activity of the ABCB1 variants was described by the Transport Activity Factor (TAF) calculated according to the following formula: TAF = (MFinh−MFI0)/MFIinh, wherein MFIinh and MFI0 are the mean fluorescence intensity values measured in the presence and absence of ABCB1 inhibitor, respectively.
(§4) Intracellular Hoechst 33342 and calcein accumulation was measured using a Becton Dickinson FACSAria III Cell Sorter (Becton Dickinson, Mountain View, CA, USA). Hoechst 33342 was excited with a 365 nm UV laser and the emitted blue light was detected using a 445/40 band pass filter. Calcein was excited with a 488 nm blue laser and fluorescence was detected using a 502 long pass dichroic mirror and a 530/20 band pass filter. PI was excited by the 562 nm line of a solid-state laser and the emitted light was detected applying a 590 nm dichroic mirror and a 595/50 nm band-pass filter.

[6] = target: T3, ABCB1 quadruple mutant (S474E, E556M, G1178R, Q1180E); experiment: as above; assay type: cell-based
Experimental: as §3, §4

[7] = target: T1, wild-type ABCB1; experiment: as above; assay type: cell-based; details: wild-type ABCB1 expressing cells, 30 min, 37°C
Experimental: as §3, §4

Compound: Nc1ncnc2c1ncn2[C@@H]1O[C@H](COP(=O)(O)OP(=O)([O-])OP(=O)([O-])O)[C@@H](O)[C@H]1O.[Mg+2] [MgATP]
- Km [1]: 300 to 500 µM
- apparent affinity (KA) lower than reported KM ([2]; wild-type ABCB1, KA vs reported KM): 3–4 fold
- apparent affinity of MgATP (KA) ([2]; wild-type ABCB1, absence of vanadate, UIC2 binding readout, 37°C): 1.56 ± 0.46 mM
- apparent affinity of ATP (KA) ([3]; absence of Vi): 0.077 ± 0.02 mM
- apparent affinity of ATP (KA) with Vi ([3]; treatment with 0.5 mM Vi): 0.027 ± 0.001 mM
- apparent affinity for MgATP/Vi (KA) ([4]; 0.5 mM Vi): 0.038 ± 0.001 mM
- apparent affinity for MgATP (KA) ([4]; absence of Vi): 1.12 ± 0.6 mM

- transport activity [5]: abolished transport activity
- difference in transport activity factor between wild type and quadruple mutant [6]: two-fold difference
- intracellular accumulation / efflux by ABCB1 [6]: able to limit
Compound: O=C(O)CN(CC(=O)O)Cc1cc2c(cc1O)Oc1cc(O)c(CN(CC(=O)O)CC(=O)O)cc1C21OC(=O)c2ccccc21 [calcein]

Compound: CCOc1ccc(-c2nc3ccc(-c4nc5ccc(N6CCN(C)CC6)cc5[nH]4)cc3[nH]2)cc1 [Hoechst 33342]
- intracellular accumulation / efflux by ABCB1 [7]: effectively prevented intracellular accumulation
- transport activity ([5]; E556M expressing cells): abolished transport activity
- intracellular accumulation / efflux by ABCB1 ([6]; quadruple mutant expressing cells): able to limit
- difference in transport activity factor between wild type and quadruple mutant ([6]; wild type vs quadruple mutant): two-fold difference
